Results published in ChEMBL document CHEMBL4145625 (J Med Chem, 2018).

Legend:
[1] = target: Phosphatidylinositol 4,5-bisphosphate 3-kinase catalytic subunit gamma isoform (Homo sapiens, UniProt P48736); test: Inhibition of PI3Kgamma (unknown origin) using PIP2 as substrate by ADP-Glo assay
Cytochrome P450 2E1 = Cytochrome P450 2E1 (Homo sapiens, UniProt P05181)
Description: Inhibition of CYP2E1 in human liver microsomes assessed as reduction in 6-Hydroxychlorzoxazone formation using chlorzoxazone as substrate after 10 to 20 mins in presence of NADPH by LC-MS/MS analysis

in vivo [2] = details: ICR, mouse, plasma, iv, 3 mg/kg
Description: Half life in ICR mouse plasma at 3 mg/kg, iv by LC/MS/MS analysis

T98G = test: cells; format: functional, cell-based; details: Homo sapiens, 96 h
Description: Cytotoxicity against human T98G cells after 96 hrs by MTT assay

A549 = test: cells; format: functional, cell-based; details: Homo sapiens, A549, 96 h
Description: Cytotoxicity against human A549 cells after 96 hrs by MTT assay

SH-SY5Y = test: cells; format: functional, cell-based; details: Homo sapiens, 96 h
Description: Cytotoxicity against human SH-SY5Y cells after 96 hrs by MTT assay

Cytochrome P450 1A2 = target: T1, Cytochrome P450 1A2 (Homo sapiens, UniProt P05177)
T1 sequence (P05177 whole entry): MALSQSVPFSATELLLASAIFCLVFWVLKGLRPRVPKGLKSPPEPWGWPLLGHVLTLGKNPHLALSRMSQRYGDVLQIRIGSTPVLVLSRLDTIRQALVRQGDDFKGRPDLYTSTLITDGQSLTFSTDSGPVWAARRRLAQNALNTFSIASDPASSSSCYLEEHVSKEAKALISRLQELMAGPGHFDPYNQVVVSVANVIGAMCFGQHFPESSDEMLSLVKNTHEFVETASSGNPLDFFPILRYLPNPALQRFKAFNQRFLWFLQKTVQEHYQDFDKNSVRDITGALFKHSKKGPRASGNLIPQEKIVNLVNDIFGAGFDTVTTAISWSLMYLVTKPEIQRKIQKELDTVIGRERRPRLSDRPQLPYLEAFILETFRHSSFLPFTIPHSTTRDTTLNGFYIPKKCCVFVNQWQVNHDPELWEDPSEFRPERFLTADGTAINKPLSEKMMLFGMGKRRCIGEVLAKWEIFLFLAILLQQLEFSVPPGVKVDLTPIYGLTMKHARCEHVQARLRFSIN
Description: Inhibition of CYP1A2 in human liver microsomes assessed as reduction in acetaminophen formation using phenacetin as substrate after 10 to 20 mins in presence of NADPH by LC-MS/MS analysis

in vivo [3] = details: ICR, mouse, plasma, iv, 3 mg/kg; remark: listed apart in the source
in vivo [4] = details: ICR, mouse, plasma, po, 30 mg/kg
in vivo [5] = details: ICR, mouse, plasma, iv, 3 mg/kg; remark: listed apart in the source
in vivo [6] = details: ICR, mouse, plasma, iv, 3 mg/kg; remark: listed apart in the source
PC-3 = test: cells; format: functional, cell-based; details: Homo sapiens, PC-3, 96 h
Description: Cytotoxicity against human PC3 cells after 96 hrs by MTT assay

in vivo [7] = details: ICR, mouse, plasma, po, 30 mg/kg; remark: listed apart in the source
[8] = target: T2, Phosphatidylinositol 4,5-bisphosphate 3-kinase catalytic subunit delta isoform (Homo sapiens, UniProt O00329); test: Inhibition of PI3Kdelta (unknown origin) using PIP2 as substrate by ADP-Glo assay
T2 sequence (O00329 whole entry): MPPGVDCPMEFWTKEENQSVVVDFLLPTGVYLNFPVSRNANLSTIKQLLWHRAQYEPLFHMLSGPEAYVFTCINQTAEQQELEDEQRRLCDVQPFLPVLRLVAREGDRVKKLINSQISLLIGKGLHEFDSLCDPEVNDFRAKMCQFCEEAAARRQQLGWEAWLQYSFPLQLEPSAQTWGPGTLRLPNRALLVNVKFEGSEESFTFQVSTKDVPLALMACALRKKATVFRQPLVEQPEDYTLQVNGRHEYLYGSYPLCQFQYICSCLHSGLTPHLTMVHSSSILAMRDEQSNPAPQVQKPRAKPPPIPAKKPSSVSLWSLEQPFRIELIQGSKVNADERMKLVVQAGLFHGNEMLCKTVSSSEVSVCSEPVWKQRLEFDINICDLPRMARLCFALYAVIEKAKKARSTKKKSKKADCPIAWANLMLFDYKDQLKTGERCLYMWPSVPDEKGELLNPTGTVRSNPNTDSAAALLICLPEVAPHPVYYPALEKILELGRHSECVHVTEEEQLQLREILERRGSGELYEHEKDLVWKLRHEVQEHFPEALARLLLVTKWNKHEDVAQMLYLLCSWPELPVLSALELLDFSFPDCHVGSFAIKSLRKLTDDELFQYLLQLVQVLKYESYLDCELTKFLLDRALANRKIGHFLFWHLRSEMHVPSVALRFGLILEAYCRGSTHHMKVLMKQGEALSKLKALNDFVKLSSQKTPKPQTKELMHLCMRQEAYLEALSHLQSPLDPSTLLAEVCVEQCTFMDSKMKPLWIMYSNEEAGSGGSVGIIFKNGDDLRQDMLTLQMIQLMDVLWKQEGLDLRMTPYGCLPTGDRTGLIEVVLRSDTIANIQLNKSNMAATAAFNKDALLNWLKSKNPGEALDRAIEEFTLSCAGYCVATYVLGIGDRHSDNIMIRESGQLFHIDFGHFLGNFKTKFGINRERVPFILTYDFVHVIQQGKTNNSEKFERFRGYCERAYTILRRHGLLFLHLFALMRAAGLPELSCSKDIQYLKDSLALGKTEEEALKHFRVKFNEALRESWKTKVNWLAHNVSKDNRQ

Cytochrome P450 2C19 = Cytochrome P450 2C19 (Homo sapiens, UniProt P33261)
Description: Inhibition of CYP2C19 in human liver microsomes assessed as reduction in 4-Hydroxymephenytoinn formation using mephenytoin as substrate after 10 to 20 mins in presence of NADPH by LC-MS/MS analysis

[9] = target: Serine/threonine-protein kinase mTOR (Homo sapiens, UniProt P42345); test: Inhibition of mTOR (unknown origin) using ULight-4E-BP1 peptide as substrate after 30 mins by Lance Ultra assay
Cytochrome P450 2D6 = Cytochrome P450 2D6 (Homo sapiens, UniProt P10635)
Sequence of Cytochrome P450 2D6 (P10635 whole entry): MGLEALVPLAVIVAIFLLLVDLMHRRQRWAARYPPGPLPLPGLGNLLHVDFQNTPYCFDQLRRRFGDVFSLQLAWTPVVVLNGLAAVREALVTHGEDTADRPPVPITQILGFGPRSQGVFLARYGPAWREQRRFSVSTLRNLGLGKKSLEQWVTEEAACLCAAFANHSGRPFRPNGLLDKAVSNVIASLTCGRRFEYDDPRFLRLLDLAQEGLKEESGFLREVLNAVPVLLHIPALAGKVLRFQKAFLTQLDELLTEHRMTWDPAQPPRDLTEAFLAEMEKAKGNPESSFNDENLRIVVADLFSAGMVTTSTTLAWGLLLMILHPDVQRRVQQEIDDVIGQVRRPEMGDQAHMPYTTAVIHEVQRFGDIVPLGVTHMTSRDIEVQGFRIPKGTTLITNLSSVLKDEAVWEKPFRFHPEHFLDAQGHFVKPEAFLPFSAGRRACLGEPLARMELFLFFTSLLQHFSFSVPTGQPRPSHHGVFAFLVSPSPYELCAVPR
Description: Inhibition of CYP2D6 in human liver microsomes assessed as reduction in dextrophan formation using detromethorphann as substrate after 10 to 20 mins in presence of NADPH by LC-MS/MS analysis

in vivo [10] = details: ICR, mouse, plasma, iv, 3 mg/kg; remark: listed apart in the source
[11] = target: Phosphatidylinositol 4,5-bisphosphate 3-kinase catalytic subunit beta isoform (Homo sapiens, UniProt P42338); test: Inhibition of PI3Kbeta (unknown origin) using PIP2 as substrate by ADP-Glo assay
Sequence of Phosphatidylinositol 4,5-bisphosphate 3-kinase catalytic subunit beta isoform (P42338 whole entry, canonical isoform): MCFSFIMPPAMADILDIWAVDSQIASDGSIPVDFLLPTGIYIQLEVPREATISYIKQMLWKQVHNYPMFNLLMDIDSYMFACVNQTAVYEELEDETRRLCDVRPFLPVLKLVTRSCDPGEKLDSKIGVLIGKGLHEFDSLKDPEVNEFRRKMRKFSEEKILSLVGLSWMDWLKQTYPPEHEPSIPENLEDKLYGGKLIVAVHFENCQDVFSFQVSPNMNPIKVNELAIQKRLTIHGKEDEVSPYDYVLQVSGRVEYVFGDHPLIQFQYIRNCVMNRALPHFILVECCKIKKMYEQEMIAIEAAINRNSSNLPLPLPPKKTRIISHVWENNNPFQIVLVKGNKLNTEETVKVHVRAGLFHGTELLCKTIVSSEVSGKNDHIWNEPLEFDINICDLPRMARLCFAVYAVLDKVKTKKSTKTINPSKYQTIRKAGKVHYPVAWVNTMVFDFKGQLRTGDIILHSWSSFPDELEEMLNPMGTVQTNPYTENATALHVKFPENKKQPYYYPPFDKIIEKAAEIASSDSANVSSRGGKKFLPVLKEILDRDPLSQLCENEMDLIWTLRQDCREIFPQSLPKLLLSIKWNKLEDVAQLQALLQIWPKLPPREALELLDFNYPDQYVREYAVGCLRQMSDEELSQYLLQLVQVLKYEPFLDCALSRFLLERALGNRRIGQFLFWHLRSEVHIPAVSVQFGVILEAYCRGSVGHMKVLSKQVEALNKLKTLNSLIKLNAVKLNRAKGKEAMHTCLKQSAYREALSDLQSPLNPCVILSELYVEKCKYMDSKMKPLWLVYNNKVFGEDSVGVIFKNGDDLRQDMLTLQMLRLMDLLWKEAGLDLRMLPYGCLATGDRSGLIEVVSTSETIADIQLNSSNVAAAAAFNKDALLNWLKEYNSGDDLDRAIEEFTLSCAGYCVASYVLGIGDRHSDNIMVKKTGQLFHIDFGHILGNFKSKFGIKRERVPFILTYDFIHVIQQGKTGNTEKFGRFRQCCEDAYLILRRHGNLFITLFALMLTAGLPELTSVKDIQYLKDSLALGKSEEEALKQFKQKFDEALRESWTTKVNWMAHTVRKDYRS

HGC-27 = test: cells; format: functional, cell-based; details: Homo sapiens, HGC-27, 96 h
Description: Cytotoxicity against human HGC27 cells after 96 hrs by MTT assay

U-251 = test: cells; format: functional, cell-based; details: Homo sapiens, U-251, 96 h
Description: Cytotoxicity against human U251 cells after 96 hrs by MTT assay

[12] = target: RAC-alpha serine/threonine-protein kinase (Homo sapiens, UniProt P31749); test: Inhibition of AKT1 (unknown origin) using FAM-labeled peptide as substrate by mobility shift assay
Sequence of RAC-alpha serine/threonine-protein kinase (P31749 whole entry): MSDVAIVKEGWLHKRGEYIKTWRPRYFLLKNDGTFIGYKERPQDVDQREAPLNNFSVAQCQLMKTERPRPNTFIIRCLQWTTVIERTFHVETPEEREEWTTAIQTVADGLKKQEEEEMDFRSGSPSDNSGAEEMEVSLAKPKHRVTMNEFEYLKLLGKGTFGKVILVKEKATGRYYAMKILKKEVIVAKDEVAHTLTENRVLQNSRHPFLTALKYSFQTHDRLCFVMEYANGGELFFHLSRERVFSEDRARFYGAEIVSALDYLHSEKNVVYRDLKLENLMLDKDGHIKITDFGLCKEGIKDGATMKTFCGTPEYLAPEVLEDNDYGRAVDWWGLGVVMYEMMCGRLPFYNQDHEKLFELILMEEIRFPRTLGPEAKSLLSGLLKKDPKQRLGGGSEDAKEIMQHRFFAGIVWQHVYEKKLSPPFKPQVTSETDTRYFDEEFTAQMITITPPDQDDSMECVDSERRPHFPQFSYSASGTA

in vivo [13] = details: ICR, mouse, plasma, po, 30 mg/kg; remark: listed apart in the source
Description: Half life in ICR mouse plasma at 30 mg/kg, po by LC/MS/MS analysis

in vivo [14] = details: ICR, mouse, plasma, po, 30 mg/kg; remark: listed apart in the source
U-87 MG = test: cells; format: functional, cell-based, U-87MG ATCC; details: Homo sapiens, 96 h
Description: Cytotoxicity against human U87MG cells after 96 hrs by MTT assay

[15] = mouse, in vivo, po, 30 mg/kg
[16] = target: Phosphatidylinositol 4,5-bisphosphate 3-kinase catalytic subunit alpha isoform (Homo sapiens, UniProt P42336); test: Inhibition of PI3Kalpha (unknown origin) using PIP2 as substrate by Kinase-Glo assay
Sequence of Phosphatidylinositol 4,5-bisphosphate 3-kinase catalytic subunit alpha isoform (P42336 whole entry, canonical isoform): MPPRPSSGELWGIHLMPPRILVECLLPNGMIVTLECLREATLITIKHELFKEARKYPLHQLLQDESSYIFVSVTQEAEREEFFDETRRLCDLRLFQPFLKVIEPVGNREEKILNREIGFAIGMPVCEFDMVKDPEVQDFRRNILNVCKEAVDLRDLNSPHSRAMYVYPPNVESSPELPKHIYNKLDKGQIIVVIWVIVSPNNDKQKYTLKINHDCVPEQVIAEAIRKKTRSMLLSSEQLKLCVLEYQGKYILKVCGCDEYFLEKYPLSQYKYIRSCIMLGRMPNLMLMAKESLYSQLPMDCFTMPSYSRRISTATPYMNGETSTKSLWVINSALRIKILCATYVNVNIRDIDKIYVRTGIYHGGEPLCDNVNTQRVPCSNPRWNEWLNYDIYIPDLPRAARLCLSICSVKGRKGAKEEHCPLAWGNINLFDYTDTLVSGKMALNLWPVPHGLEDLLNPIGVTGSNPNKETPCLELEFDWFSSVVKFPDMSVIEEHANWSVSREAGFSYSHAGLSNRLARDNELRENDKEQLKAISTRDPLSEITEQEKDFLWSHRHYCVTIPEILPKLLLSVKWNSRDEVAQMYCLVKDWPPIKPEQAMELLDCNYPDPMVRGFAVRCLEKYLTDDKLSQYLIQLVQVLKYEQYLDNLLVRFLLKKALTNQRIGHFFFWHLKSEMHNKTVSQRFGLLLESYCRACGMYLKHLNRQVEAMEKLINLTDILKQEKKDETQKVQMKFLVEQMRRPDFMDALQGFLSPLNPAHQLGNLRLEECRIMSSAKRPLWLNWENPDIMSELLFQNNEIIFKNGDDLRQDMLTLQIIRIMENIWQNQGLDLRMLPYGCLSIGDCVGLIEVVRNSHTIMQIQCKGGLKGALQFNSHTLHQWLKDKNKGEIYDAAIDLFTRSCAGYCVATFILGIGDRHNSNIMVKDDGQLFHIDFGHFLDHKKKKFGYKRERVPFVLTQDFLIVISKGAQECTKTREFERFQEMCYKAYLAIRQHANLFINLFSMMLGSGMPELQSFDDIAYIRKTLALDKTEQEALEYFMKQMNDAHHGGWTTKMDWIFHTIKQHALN

Sequence of Cytochrome P450 2E1 (P05181 whole entry): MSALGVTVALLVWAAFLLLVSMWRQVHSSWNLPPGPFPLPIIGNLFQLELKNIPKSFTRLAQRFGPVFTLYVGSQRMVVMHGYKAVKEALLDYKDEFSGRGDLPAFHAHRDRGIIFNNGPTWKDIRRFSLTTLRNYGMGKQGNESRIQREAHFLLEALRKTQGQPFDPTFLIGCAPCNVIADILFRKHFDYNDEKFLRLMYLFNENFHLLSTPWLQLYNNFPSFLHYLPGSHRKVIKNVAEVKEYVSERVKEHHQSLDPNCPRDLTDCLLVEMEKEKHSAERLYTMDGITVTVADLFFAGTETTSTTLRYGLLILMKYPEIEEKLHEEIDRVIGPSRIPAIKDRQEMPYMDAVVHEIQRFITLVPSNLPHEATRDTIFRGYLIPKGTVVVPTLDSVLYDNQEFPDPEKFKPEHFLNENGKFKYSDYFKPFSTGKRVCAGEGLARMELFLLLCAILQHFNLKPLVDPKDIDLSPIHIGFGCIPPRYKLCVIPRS
Sequence of Phosphatidylinositol 4,5-bisphosphate 3-kinase catalytic subunit gamma isoform (P48736 whole entry, canonical isoform): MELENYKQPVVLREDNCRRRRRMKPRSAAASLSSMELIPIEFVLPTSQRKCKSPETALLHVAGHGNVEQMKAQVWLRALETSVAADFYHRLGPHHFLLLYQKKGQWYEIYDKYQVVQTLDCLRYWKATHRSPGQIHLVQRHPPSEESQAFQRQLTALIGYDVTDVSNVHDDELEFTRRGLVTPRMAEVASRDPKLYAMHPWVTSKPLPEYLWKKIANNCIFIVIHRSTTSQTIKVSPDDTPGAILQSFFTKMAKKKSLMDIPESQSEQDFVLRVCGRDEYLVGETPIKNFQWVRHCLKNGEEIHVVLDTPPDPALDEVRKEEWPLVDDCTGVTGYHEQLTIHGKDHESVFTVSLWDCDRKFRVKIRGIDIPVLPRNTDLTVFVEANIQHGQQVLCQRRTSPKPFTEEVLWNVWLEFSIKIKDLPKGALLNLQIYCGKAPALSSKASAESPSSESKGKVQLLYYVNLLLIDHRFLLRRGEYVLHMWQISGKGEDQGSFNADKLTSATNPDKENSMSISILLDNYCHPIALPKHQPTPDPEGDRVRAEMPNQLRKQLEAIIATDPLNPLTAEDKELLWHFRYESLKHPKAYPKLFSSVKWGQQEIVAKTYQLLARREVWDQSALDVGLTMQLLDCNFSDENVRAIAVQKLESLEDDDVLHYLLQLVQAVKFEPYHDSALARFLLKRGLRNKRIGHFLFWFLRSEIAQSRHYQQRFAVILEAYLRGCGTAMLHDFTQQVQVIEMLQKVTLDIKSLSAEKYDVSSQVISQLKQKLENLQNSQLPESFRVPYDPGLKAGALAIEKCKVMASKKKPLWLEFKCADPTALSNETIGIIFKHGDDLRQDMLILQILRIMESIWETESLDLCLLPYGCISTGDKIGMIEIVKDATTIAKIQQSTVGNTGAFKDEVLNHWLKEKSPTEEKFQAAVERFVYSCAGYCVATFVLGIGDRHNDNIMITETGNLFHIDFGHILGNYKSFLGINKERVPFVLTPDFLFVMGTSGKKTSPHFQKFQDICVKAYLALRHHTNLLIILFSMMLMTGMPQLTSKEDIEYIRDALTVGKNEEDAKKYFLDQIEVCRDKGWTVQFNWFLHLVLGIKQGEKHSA

SMILES	IC50 [1]	IC50 (Cytochrome P450 2E1)	half-life (in vivo [2])	IC50 (T98G)	IC50 (A549)	IC50 (SH-SY5Y)	IC50 (Cytochrome P450 1A2)	AUC(0-t) (in vivo [3])	Cmax (in vivo [4])	Tmax (in vivo [5])	AUC(0-inf) (in vivo [6])	IC50 (PC-3)	Tmax (in vivo [7])	IC50 [8]	IC50 (Cytochrome P450 2C19)	IC50 [9]	IC50 (Cytochrome P450 2D6)	Cmax (in vivo [10])	IC50 [11]	IC50 (HGC-27)	other results
CNc1nc(C)c2cc(-c3cnc(OC)c(NS(=O)(=O)c4ccc(F)cc4F)c3)cc(OC3CCOCC3)c2n1	1.7 nM	> 10000 nM	37.2 min	390 nM	110 nM	510 nM	> 10000 nM	3480 ng·h/mL	12800 ng/mL	3 min	3500 ng·h/mL	380 nM	10.8 min	0.35 nM	> 10000 nM	43 nM	> 10000 nM	7720 ng/mL	1.2 nM	16 nM	IC50 (U-251): 700 nM; IC50 [12]: > 10000 nM; half-life (in vivo [13]): 255 min; AUC(0-inf) (in vivo [14]): 16100 ng·h/mL; IC50 (U-87 MG): 250 nM; AUCt [15]: 895 ng·h/g; IC50 [16]: 1.4 nM
CNc1nc(C)c2cc(-c3cnc(OC)c(NS(=O)(=O)c4ccc(F)cc4F)c3)cc(O[C@@H]3CCOC3)c2n1	0.93 nM	> 10000 nM	31.8 min	410 nM	120 nM	1300 nM	> 10000 nM	1450 ng·h/mL	5390 ng/mL	1.8 min	1460 ng·h/mL	240 nM	15 min	0.37 nM	> 10000 nM	56 nM	> 10000 nM	2620 ng/mL	1.1 nM	27 nM	IC50 (U-251): 460 nM; IC50 [12]: > 10000 nM; half-life (in vivo [13]): 972 min; AUC(0-inf) (in vivo [14]): 17100 ng·h/mL; IC50 (U-87 MG): 400 nM; AUCt [15]: 742 ng·h/g; IC50 [16]: 0.96 nM
COc1ncc(-c2cc(O[C@@H]3CCOC3)c3nc(N)nc(C)c3c2)cc1NS(=O)(=O)c1ccc(F)cc1F	1.2 nM	> 10000 nM	32.4 min	280 nM	84 nM	950 nM	> 10000 nM	904 ng·h/mL	8830 ng/mL	1.8 min	911 ng·h/mL	280 nM	4.8 min	0.23 nM	> 10000 nM	9.9 nM	> 10000 nM	1580 ng/mL	0.4 nM	56 nM	IC50 (U-251): 140 nM; IC50 [12]: > 10000 nM; half-life (in vivo [13]): 281 min; AUC(0-inf) (in vivo [14]): 9040 ng·h/mL; IC50 (U-87 MG): 260 nM; AUCt [15]: 28.6 ng·h/g; IC50 [16]: 1 nM
